# Data taken from PubChem BioAssay (NCI).
#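 Cells were grown in 96-well plates and exposed to each compound for 48 hours at five concentrations; endpoints were interpolated linearly between bracketing concentrations, or set to the highest concentration if not reached. The concentration for 50% growth inhibition is given as GI50. TGI is the concentration that stops growth completely.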
# Tests used:
# Assay in all cases: NCI anticancer screen, dose series, 48 h
# TK-10 renal = tested on: TK-10 renal
# DU-145 prostate = tested on: DU-145 prostate
# NCI-H226 lung = tested on: NCI-H226 lung
# OVCAR-5 ovarian = tested on: OVCAR-5 ovarian
# U251 CNS = tested on: U251 CNS
# BT-549 breast = tested on: BT-549 breast
# OVCAR-8 ovarian = tested on: OVCAR-8 ovarian
# HOP-62 NSCLC = tested on: HOP-62 NSCLC
# SNB-75 CNS = tested on: SNB-75 CNS
# NCI/ADR-RES ovarian = tested on: NCI/ADR-RES ovarian
# SK-MEL-28 melanoma = tested on: SK-MEL-28 melanoma
# LOX IMVI melanoma = tested on: LOX IMVI melanoma
# MOLT-4 leukemia = tested on: MOLT-4 leukemia
# SF-295 CNS = tested on: SF-295 CNS
# IGROV1 ovarian = tested on: IGROV1 ovarian
# HCT-116 colon = tested on: HCT-116 colon
# HT29 colon = tested on: HT29 colon
# SK-MEL-5 melanoma = tested on: SK-MEL-5 melanoma
# HCT-15 colon = tested on: HCT-15 colon
# MCF7 breast = tested on: MCF7 breast
# SNB-19 CNS = tested on: SNB-19 CNS
# NCI-H23 lung = tested on: NCI-H23 lung
# UACC-62 melanoma = tested on: UACC-62 melanoma
# SK-OV-3 ovarian = tested on: SK-OV-3 ovarian
# NCI-H522 lung = tested on: NCI-H522 lung
# MALME-3M melanoma = tested on: MALME-3M melanoma
# MDA-MB-435 = tested on: MDA-MB-435
# SK-MEL-2 melanoma = tested on: SK-MEL-2 melanoma
# CCRF-CEM leukemia = tested on: CCRF-CEM leukemia
# COLO 205 colon = tested on: COLO 205 colon
# MDA-MB-231 breast = tested on: MDA-MB-231 breast
# SR leukemia = tested on: SR leukemia
# M14 melanoma = tested on: M14 melanoma
# HCC-2998 colon = tested on: HCC-2998 colon
# A549 NSCLC = tested on: A549 NSCLC
# CAKI-1 renal = tested on: CAKI-1 renal
# SW-620 colon = tested on: SW-620 colon
# UO-31 renal = tested on: UO-31 renal
# SF-268 CNS = tested on: SF-268 CNS
# RPMI-8226 leukemia = tested on: RPMI-8226 leukemia
# UACC-257 melanoma = tested on: UACC-257 melanoma
# 786-0 renal = tested on: 786-0 renal
# ACHN renal = tested on: ACHN renal
# KM12 colon = tested on: KM12 colon
# RXF 393 renal = tested on: RXF 393 renal
# SN12C renal = tested on: SN12C renal
# PC-3 prostate = tested on: PC-3 prostate
# K-562 leukemia = tested on: K-562 leukemia
# OVCAR-3 ovarian = tested on: OVCAR-3 ovarian
# SF-539 CNS = tested on: SF-539 CNS
# HOP-92 NSCLC = tested on: HOP-92 NSCLC
# HS 578T breast = tested on: HS 578T breast
# OVCAR-4 ovarian = tested on: OVCAR-4 ovarian
# T-47D breast = tested on: T-47D breast
# NCI-H460 lung = tested on: NCI-H460 lung
# A498 renal = tested on: A498 renal
# HL-60(TB) leukemia = tested on: HL-60(TB) leukemia
# EKVX NSCLC = tested on: EKVX NSCLC
structure (smiles),measurement,setting,value
Cc1ccc(C(=O)c2sc3nc4c(cc3c2N)CCCC4)c(C)c1,GI50,TK-10 renal,12.8 µM
same,TGI,TK-10 renal,> 100 µM
same,GI50,DU-145 prostate,0.838 µM
same,TGI,DU-145 prostate,> 100 µM
same,GI50,NCI-H226 lung,2.67 µM
same,TGI,NCI-H226 lung,> 100 µM
same,GI50,OVCAR-5 ovarian,2.49 µM
same,TGI,OVCAR-5 ovarian,> 100 µM
same,GI50,U251 CNS,0.376 µM
same,TGI,U251 CNS,> 100 µM
same,GI50,BT-549 breast,1.2 µM
same,TGI,BT-549 breast,> 100 µM
same,GI50,OVCAR-8 ovarian,0.807 µM
same,TGI,OVCAR-8 ovarian,> 100 µM
same,GI50,HOP-62 NSCLC,0.465 µM
same,TGI,HOP-62 NSCLC,> 100 µM
same,GI50,SNB-75 CNS,0.247 µM
same,TGI,SNB-75 CNS,6.16 µM
same,GI50,NCI/ADR-RES ovarian,0.239 µM
same,TGI,NCI/ADR-RES ovarian,> 100 µM
same,GI50,SK-MEL-28 melanoma,2.15 µM
same,TGI,SK-MEL-28 melanoma,> 100 µM
same,GI50,LOX IMVI melanoma,0.502 µM
same,TGI,LOX IMVI melanoma,> 100 µM
same,GI50,MOLT-4 leukemia,0.563 µM
same,TGI,MOLT-4 leukemia,> 100 µM
same,GI50,SF-295 CNS,0.291 µM
same,TGI,SF-295 CNS,98.9 µM
same,GI50,IGROV1 ovarian,1.23 µM
same,TGI,IGROV1 ovarian,> 100 µM
same,GI50,HCT-116 colon,0.26 µM
same,TGI,HCT-116 colon,> 100 µM
same,GI50,HT29 colon,0.443 µM
same,TGI,HT29 colon,> 35 µM
same,GI50,SK-MEL-5 melanoma,0.32 µM
same,TGI,SK-MEL-5 melanoma,> 37.9 µM
same,GI50,HCT-15 colon,0.159 µM
same,TGI,HCT-15 colon,> 100 µM
same,GI50,MCF7 breast,0.162 µM
same,TGI,MCF7 breast,> 100 µM
same,GI50,SNB-19 CNS,4.68 µM
same,TGI,SNB-19 CNS,> 100 µM
same,GI50,NCI-H23 lung,0.776 µM
same,TGI,NCI-H23 lung,> 100 µM
same,GI50,UACC-62 melanoma,0.256 µM
same,TGI,UACC-62 melanoma,> 100 µM
same,GI50,SK-OV-3 ovarian,0.515 µM
same,TGI,SK-OV-3 ovarian,> 100 µM
same,GI50,NCI-H522 lung,0.126 µM
same,GI50,MALME-3M melanoma,0.0754 µM
same,TGI,MALME-3M melanoma,> 100 µM
same,GI50,MDA-MB-435,0.0258 µM
same,TGI,MDA-MB-435,0.086 µM
same,GI50,SK-MEL-2 melanoma,0.429 µM
same,TGI,SK-MEL-2 melanoma,> 71.2 µM
same,GI50,CCRF-CEM leukemia,0.311 µM
same,TGI,CCRF-CEM leukemia,> 100 µM
same,GI50,COLO 205 colon,0.899 µM
same,TGI,COLO 205 colon,5.07 µM
same,GI50,MDA-MB-231 breast,1.08 µM
same,TGI,MDA-MB-231 breast,> 100 µM
same,GI50,SR leukemia,0.124 µM
same,TGI,SR leukemia,> 73 µM
same,GI50,M14 melanoma,0.19 µM
same,TGI,M14 melanoma,> 100 µM
same,GI50,HCC-2998 colon,4.72 µM
same,TGI,HCC-2998 colon,> 100 µM
same,GI50,A549 NSCLC,0.377 µM
same,TGI,A549 NSCLC,> 100 µM
same,GI50,CAKI-1 renal,0.361 µM
same,TGI,CAKI-1 renal,> 100 µM
same,GI50,SW-620 colon,0.265 µM
same,TGI,SW-620 colon,> 100 µM
same,GI50,UO-31 renal,0.766 µM
same,TGI,UO-31 renal,> 100 µM
same,GI50,SF-268 CNS,0.787 µM
same,TGI,SF-268 CNS,> 100 µM
same,GI50,RPMI-8226 leukemia,0.406 µM
same,TGI,RPMI-8226 leukemia,6.97 µM
same,GI50,UACC-257 melanoma,0.539 µM
same,TGI,UACC-257 melanoma,> 100 µM
same,GI50,786-0 renal,0.617 µM
same,TGI,786-0 renal,> 100 µM
same,GI50,ACHN renal,0.872 µM
same,TGI,ACHN renal,> 100 µM
same,GI50,KM12 colon,0.251 µM
same,TGI,KM12 colon,> 100 µM
same,GI50,RXF 393 renal,0.328 µM
same,TGI,RXF 393 renal,2.31 µM
same,GI50,SN12C renal,0.841 µM
same,TGI,SN12C renal,> 100 µM
same,GI50,PC-3 prostate,0.433 µM
same,TGI,PC-3 prostate,> 100 µM
same,GI50,K-562 leukemia,0.0934 µM
same,TGI,K-562 leukemia,> 100 µM
same,GI50,OVCAR-3 ovarian,0.183 µM
same,TGI,OVCAR-3 ovarian,> 31.9 µM
same,GI50,SF-539 CNS,0.25 µM
same,TGI,SF-539 CNS,0.956 µM
same,GI50,HOP-92 NSCLC,3.36 µM
same,TGI,HOP-92 NSCLC,87.6 µM
same,GI50,HS 578T breast,0.415 µM
same,TGI,HS 578T breast,> 100 µM
same,GI50,OVCAR-4 ovarian,1.97 µM
same,TGI,OVCAR-4 ovarian,> 100 µM
same,GI50,T-47D breast,0.45 µM
same,TGI,T-47D breast,> 69.8 µM
same,GI50,NCI-H460 lung,0.348 µM
same,TGI,NCI-H460 lung,> 100 µM
same,GI50,A498 renal,0.236 µM
same,TGI,A498 renal,11 µM
same,GI50,HL-60(TB) leukemia,0.263 µM
same,TGI,HL-60(TB) leukemia,> 38.8 µM
CN(CCO)Cc1ncccc1O,TGI,TK-10 renal,> 100 µM
same,TGI,DU-145 prostate,> 100 µM
same,TGI,NCI-H226 lung,> 100 µM
same,TGI,OVCAR-5 ovarian,> 100 µM
same,TGI,U251 CNS,> 100 µM
same,TGI,BT-549 breast,> 100 µM
same,TGI,OVCAR-8 ovarian,> 100 µM
same,TGI,HOP-62 NSCLC,> 100 µM
same,TGI,SNB-75 CNS,> 100 µM
same,TGI,NCI/ADR-RES ovarian,> 100 µM
same,TGI,SK-MEL-28 melanoma,> 100 µM
same,TGI,LOX IMVI melanoma,> 100 µM
same,TGI,MOLT-4 leukemia,89.5 µM
same,TGI,SF-295 CNS,> 100 µM
same,TGI,IGROV1 ovarian,> 100 µM
same,TGI,HT29 colon,> 100 µM
same,TGI,SK-MEL-5 melanoma,> 100 µM
same,TGI,HCT-15 colon,> 100 µM
same,TGI,MCF7 breast,> 100 µM
same,TGI,SNB-19 CNS,> 100 µM
same,TGI,NCI-H23 lung,> 100 µM
same,TGI,UACC-62 melanoma,> 100 µM
same,TGI,SK-OV-3 ovarian,> 100 µM
same,TGI,NCI-H522 lung,> 100 µM
same,TGI,MALME-3M melanoma,> 100 µM
same,TGI,MDA-MB-435,> 100 µM
same,TGI,SK-MEL-2 melanoma,> 100 µM
same,TGI,CCRF-CEM leukemia,> 100 µM
same,TGI,COLO 205 colon,> 100 µM
same,TGI,MDA-MB-231 breast,> 100 µM
same,TGI,SR leukemia,> 100 µM
same,TGI,M14 melanoma,> 100 µM
same,TGI,A549 NSCLC,> 100 µM
same,TGI,CAKI-1 renal,> 100 µM
same,TGI,SW-620 colon,> 100 µM
same,TGI,UO-31 renal,> 100 µM
same,TGI,SF-268 CNS,> 100 µM
same,TGI,RPMI-8226 leukemia,> 100 µM
same,TGI,UACC-257 melanoma,> 100 µM
same,TGI,ACHN renal,> 100 µM
same,TGI,KM12 colon,> 100 µM
same,TGI,RXF 393 renal,> 100 µM
same,TGI,PC-3 prostate,> 100 µM
same,TGI,K-562 leukemia,> 100 µM
same,TGI,OVCAR-3 ovarian,> 100 µM
same,TGI,SF-539 CNS,> 100 µM
same,TGI,HOP-92 NSCLC,> 100 µM
same,TGI,HS 578T breast,> 100 µM
same,TGI,EKVX NSCLC,> 100 µM
same,TGI,OVCAR-4 ovarian,> 100 µM
same,TGI,T-47D breast,> 100 µM
same,TGI,NCI-H460 lung,> 100 µM
same,TGI,A498 renal,> 100 µM
same,TGI,HL-60(TB) leukemia,> 100 µM
